{"source": "patent US11939398B2", "about": "“Modified peptides for use in treating neurodegenerative disorders” (Neuro-Bio Ltd, priority 2016, dated 2024)", "key": {"PC12 cells [1]": {"test_system": "PC12 cells", "experiment": "AChE activity assay (Ellman reagent) in PC12 cells treated with T30", "format": "cell-based", "conditions": "combined with T30 (1 μM)", "procedure": "AChE activity was measured using the Ellman reagent that measures the presence of thiol groups as a result of AChE activity. In the case of the G4 experiment, AChE (G4) activity was tested alone and also together with either NBP14 or Tri peptides. PC12 cells were plated the day before the experiment as for the cell viability assay. Cells were treated with T30 (1 μM) alone or combined with NBP14 or Tri peptide (0.5 μM). After treatment, supernatant (perfusate) of each treatment was collected and 25 μL from each condition were added to a new flat bottomed 96 well plate followed by the addition of 175 μl of Ellman reagent (Solution A: KH2PO4 139 mM and K2HPO4 79.66 mM, pH 7.0; solution B (substrate): Acetylthiocholine Iodide 11.5 mM; Solution C (Reagent): 5,5′-dithiobis(2-nitrobenzoic acid) 8 mM and NaHCO3 15 mM). The Ellman reagent was prepared as a mixture of the 3 solutions in a ratio 33(A):3(B):4(C). Absorbance measurements were taken for an interval of 60 minutes across experiments at 405 nm in a Vmax plate reader (Molecular devices, Wokingham, UK).\nIn each of the different cell techniques, the statistics analysis was performed with the average of the percentage values of 3 or more experiments. […]"}, "[2]": {"experiment": "stability / degradation in rat blood", "format": "in vitro ADME", "conditions": "rat blood diluted with PBS", "procedure": "(§1) Test compounds were spiked at 10 μg/ml into either PBS or blood (Male Wistar rat or Human) diluted with PBS, and a series of samples taken according to the following scheme:\n(§2) Procaine, a compound known to be unstable in blood, was included as a positive control (ran with 5-fold diluted blood only). The sampling procedure was to add an aliquot to ice-cold acetonitrile, centrifuge, and store the supernatant on dry ice until analysis. Analysis by UHPLC-TOF mass spectrometry using electrospray ionisation was performed on the same day as the incubations were performed."}, "[3]": {"experiment": "stability / degradation in human blood", "format": "in vitro ADME", "conditions": "human blood diluted with PBS", "procedure": "as §1, §2"}, "[4]": {"test_system": "rat basal forebrain slices", "experiment": "voltage-sensitive dye imaging (VSDI) on brain slices, Example 5", "format": "cell-based", "procedure": "Male Wistar rats (14 days old) were anaesthetised using isoflurane (˜15 ml, 100% w/w). Isoflurane was applied to the cotton bed at the bottom of an anaesthetic chamber (glass box 20×15×15 cm) where rats were then placed for approximately 45 s until complete anaesthesia was reached. The hind paw of each anaesthetised rat was pinched to check for the appropriate depth of anaesthesia. Upon confirmation of anaesthesia, rats were quickly decapitated, with the brain being quickly removed and immersed in ice cold oxygenated ‘slicing’ artificial cerebrospinal fluid (aCSF in mmol: 120 NaCl, 5 KCL, 20 NaHCO3, 2.4 CaCl2 2 MgSO4, 1.2 KH2PO4, 10 glucose, 6.7 HEPES salt and 3.3 HEPES acid; pH=7.1). Coronal slices (400 μm thick) were then taken from a block of brain containing the basal forebrain, namely the MS-dBB complex (between +9.20 and +9.48 mm Interaural and +0.48 and +0.2 mm Bregma, FIG. 4A) and the somatosensory barrel field cortex (SiBF, between +8.08 and +7.20 mm Interaural and −0.92 mm and −1.80 mm Bregma) (Paxinos and Watson, 1998) using a Vibratome (Leica VTi000S).\nSlices were then transferred to a bubbler pot containing oxygenated aCSF at room temperature (recording aCSF in mmol: 124 NaCl, 5 KCL, 20 NaHCO3, 2.4 CaCl2 2 MgSO4, 1.3 KH2PO4, 10 glucose; pH=7.4) which was identical to that used in VSDI (voltage sensitive dye imaging) recording. Slices were then left for approximately 1-1.5 hours before preparing them for VSD staining.\nSlices were placed in a dark, high humidity chamber filled with aCSF bubbled with 95% O2, 5% CO2. Once there, the dye solution (4% 0.2 mM styryl dye pyridinium 4-[2-[6-(dibutylamino)-2-napthalenyl]-ethenyl]-1-(3-sulfopropyl)hydroxide (Di-4-NEPPS), Invitrogen, Paisley, UK in 48% aCSF, 48% foetal bovine serum, 3.5% DMSO and 0.4% cremophore EL) (Tominaga et al., 2000) was applied to the slices for 20-25 minutes before being transferred back to a bubbler pot containing oxygenated aCSF kept at room temperature for 30 minutes.\nWhen starting the VSDI recordings, slices were placed in the recording bath on a small piece of filter paper to allow the flow of oxygenated aCSF on the underside of the slice and in order to keep it alive. The slice was then weighed down by a home-made plastic grid that was placed on top of the slice. […] For the acquisition of VSD data, 2 dimensional images, equivalent to 88×60 pixels, were recorded using the MiCamo2 High Resolution camera (Brain Vision, Japan) with BV_Analyze imaging software. […] Light was generated using an Osram halogen xenophot 64634 HLX EFR Display/Optic lamp and was filtered to emit green (530±10 nm) light using a MHF-G150LR (Moritex Corporation) coupled to the MiCamo2 High resolution imaging system and filtered the emitted fluorescence through a >590 nm high pass filter. […]"}, "PC12 cells [5]": {"test_system": "PC12 cells", "experiment": "Calcium fluorometry (Fluo-8, PNU282987-induced calcium increase) in PC12 cells", "format": "cell-based", "conditions": "in conjunction with T30, PC12 cells", "procedure": "PC12 cells were plated in 200 μl of Dulbecco's Modified Eagle's medium (DMEM) plus 2 mM of L-glutamine medium the day before the experiment in 96 well plates. On the day of the experiment, the Fluo-8 solution (Abcam) was prepared as described by the provider by adding 20 μl of Fluo-8 in the assay buffer that contains 9 ml of Hank's Balanced Salt Solution (HBSS) and 1 ml of pluronic F127 Plus. Subsequently, 100 μl of growth medium was removed and 100 μl of Fluo-8 solution were added. Treatments with T30 in conjunction with NBP14 or Tri peptides were added and incubated for 30 minutes in the incubator and 30 minutes room temperature. After 1 h, the plate was placed in the fluorescence plate reader (Fluostar, Optima, BMG Labtech, Ortenberg, Germany). Before reading the fluorescence, PNU282987 1 μM, an alpha7 specific agonist of the nicotinic receptors, was prepared and placed in the Fluostar injector. For each well, the reading was formed by a basal fluorescence reading followed by PNU282987 injection that induced an increase of calcium via nicotinic receptors.\nIn each of the different cell techniques, the statistics analysis was performed with the average of the percentage values of 3 or more experiments. Comparisons between multiple treatment groups and the same control were performed by one-way analysis of variance (ANOVA) and Tukey's post-hoc tests using GraphPAD Instat (GraphPAD software, San Diego, California). Statistical significance was taken at a p value<0.05."}, "α7 nicotinic-receptor": {"biological_target": "α7 nicotinic-receptor (Homo sapiens, UniProt P36544)", "sequence (P36544 23-502)": "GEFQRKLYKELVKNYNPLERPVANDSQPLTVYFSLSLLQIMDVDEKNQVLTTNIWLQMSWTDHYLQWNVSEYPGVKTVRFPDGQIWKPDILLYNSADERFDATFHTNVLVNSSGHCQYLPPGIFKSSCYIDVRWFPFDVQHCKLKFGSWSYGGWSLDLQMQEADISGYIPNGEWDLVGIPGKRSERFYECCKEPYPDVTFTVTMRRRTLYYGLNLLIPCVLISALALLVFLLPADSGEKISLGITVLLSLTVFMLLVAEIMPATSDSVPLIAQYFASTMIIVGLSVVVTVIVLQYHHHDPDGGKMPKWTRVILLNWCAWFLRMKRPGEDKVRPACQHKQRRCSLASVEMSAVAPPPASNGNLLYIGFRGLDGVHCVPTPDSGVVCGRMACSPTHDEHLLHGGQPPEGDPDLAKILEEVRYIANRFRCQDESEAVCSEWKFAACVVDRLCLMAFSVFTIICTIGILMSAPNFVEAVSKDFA", "conditions": "cited from earlier work"}}, "note": "“Also recorded” adds a separate entry of the source. Where a SMILES comes first, the peptide text is derived from it. [ ]: non-standard residue; d: D form. Phe(4-NH2) = Nc1ccc(C[C@H](N)C(=O)O)cc1; 2Nal = N[C@@H](Cc1ccc2ccccc2c1)C(=O)O", "data": [{"smiles": "CC(=O)N[C@@H](Cc1ccc2ccccc2c1)C(=O)N[C@@H](Cc1ccc(N)cc1)C(=O)N[C@@H](Cc1c[nH]c2ccccc12)C(N)=O", "note": "[Tri02, 4-((S)-2((S)-2-acetamido-3-(naphthalene-2-yl)propanamido)-3-(((S)-1-amino-3-(1H-indol-3-yl)-1-oxopropan-2-yl)amino)-3-oxopropyl)benzenaminium] (Ac-[2Nal]-[Phe(4-NH2)]-Trp-NH2)", "values": [{"measurement": "protection against T30-induced AChE activity", "setting": "PC12 cells [1]", "value": "protects against the toxic effects of T30"}, {"measurement": "stability in blood", "setting": "[2]; 10 μg/ml, up to 60 min", "value": "some instability"}, {"measurement": "degradants detected", "setting": "[2]; UHPLC-TOF MS", "value": "a variety of degradants were detected"}, {"measurement": "stability in blood", "setting": "[3]; 10 μg/ml, up to 60 min", "value": "some instability"}, {"measurement": "degradants detected", "setting": "[3]; UHPLC-TOF MS", "value": "a variety of degradants were detected"}, {"measurement": "blocking of T30-induced deviations from baseline (VSDI)", "setting": "[4]; 4 μM co-perfused with T30 (2 uM)", "value": "not found to protect against T30-induced deviations from baseline; also recorded: some efficacy in blocking those T30-induced deviation"}, {"measurement": "change in magnitude (summed fluorescence) of evoked responses, compound alone", "setting": "[4]; 4 μM in perfusate, no T30", "value": "recapitulates results seen with application of 4 μM NBP14; also recorded: small alterations"}, {"measurement": "protection against T30-induced calcium influx", "setting": "PC12 cells [5]", "value": "protects against the toxic effects of T30"}]}, {"smiles": "COc1ccc2c3c1O[C@H]1C[C@@H](O)C=C[C@@]31CCN(C)C2", "note": "[galanthamine]", "values": [{"measurement": "affinity for the α7 nicotinic-receptor", "setting": "α7 nicotinic-receptor", "value": 10, "unit": "µM"}]}]}
